In one experiment the target is AimR (Bacillus phage phi3T, UniProt P0DOE3). Kind of experiment: Analytical gel filtration of purified AimR (oligomeric state). More on the design: made in house; host or cells: E. coli BL21(DE3), pET28a. The following applies: AimR:SAIRGA 1:2, AimR:GMPRGA 1:1 molar ratio. On the procedure: Following, AimR was expressed in E. coli BL21(DE3) cells with a C-terminal 6× His-tag. Expression was performed at 15° C. for about ˜18 hours using 200 μM IPTG (Isopropyl β-D-1-thiogalactopyranoside) as an inducer. The cells pellet was resuspended in lysis buffer [50 mM Tris pH 8, 0.3M NaCl, 20 mM Imidazole, 2 mM DTT, 0.2 mg/ml Lysozyme, 1 μg/ml DNAse, protease inhibitor cocktail (Calbiochem)], disrupted by a cell disrupter at 4° C. and clarified at 15,000 g for 30 minutes. The clarified lysate was loaded onto a HisTrap_FF_5 ml column (GE Healthcare) and washed with buffer containing 50 mM Tris pH 8, 0.3 M NaCl, 20 mM imidazole and 2 mM DTT. AimR was eluted from the column in one step with the same buffer containing 0.5 M imidazole. Fractions containing AimR were pooled and injected to a size exclusion column (HiLoad_16/60_Superdex_200_prepgrade,GE_Healthcare) equilibrated with 20 mM Tris pH 8, 0.3 M NaCl, 2 mM TCEP. Fractions containing pure AimR were pooled and flash frozen in aliquots using liquid nitrogen.
Pure AimR was injected to an analytical gel filtration column (Superdex_200_Increase_10/30 GL, GE Healthcare) equilibrated with buffer containing 20 mM Tris pH 8, 0.3 M NaCl, 2 mM TCEP. […]
In general terms: Size exclusion chromatography separates by hydrodynamic size, large species first.

The subject of a further experiment is phi3T. Kind of experiment: Sequencing-based assay for lysogeny. Format: cell-based, B. subtilis 168. The following applies: 60 minutes post infection, phi3T MOI=2, peptide 1 μM; 18% (±3.3%) without peptide. On the procedure:
An overnight culture of bacteria was diluted 1/100 until reaching O.D 600 nm=0.1. Medium was replaced as described above [LB supplemented with 0.1 mM MnCl2 and 5 mM MgCl2 with or without SAIRGA (SEQ ID NO: 269)], and incubated for 1 hour at room temperature. Bacteria were infected by phi3T at multiplicity of infection (MOI)=2. Cell pellets were collected at 5, 10, 20 and 60 minutes post infection in the presence or absence of SAIRGA (SEQ ID NO: 269) peptide at 1 μM final concentration in the medium. DNA was extracted using QIAGEN DNeasy blood and tissue kit (CAT #69504) and subjected to Illumina-based whole genome sequencing on NextSeq500. The relative abundance of lysogens in each sample was estimated using the number of reads mapped to the uninterrupted integration site versus reads mapped to the integration junction spanning the prophage DNA on one end and the bacterial DNA on the other end.

A further experiment concerns aimX. Kind of experiment: RNA-seq / differential expression analysis during phi3T infection. Type of experiment: cell-based. The following applies: medium supplemented by 1 μM peptide. As for the experimental part:
To determine the difference in gene expression with and without the peptide, bacteria were incubated for 1 hour in LB medium supplemented with 0.1 mM MnCl2 and 5 mM MgCl2 in the presence or absence of 1 μM synthesized SAIRGA (SEQ ID NO: 269) peptide. Following, the bacteria were infected with phi3T (MOI=0.1); and cell pellets were collected at 0, 5, 10 and 20 minutes post infection.
RNA extraction and RNA-seq was performed as described in Dar et al.^33. Briefly, pellets were lysed using the Fastprep homogenizer (MP Biomedicals, Santa Ana, Calif.) and RNA was extracted with the FastRNA PRO blue kit (MP Biomedicals, 116025050) according to manufacturer's instructions. […]
RNA-seq libraries were sequenced using the Illumina NextSeq500 platform. Sequenced reads were demultiplexed and adapters were trimmed using fastx_clipper with default parameters. Reads were mapped to the reference genomes (gene annotation and sequences were downloaded from Genbank: NC_000964 for Bacillus subtilis str. 168, AP012496 for Bacillus subtilis BEST7003) using NovoAlign (Novocraft) V3.02.02 with default parameters. […]
Reads per gene were calculated for each biological replicate at 20 minutes post infection with and without the synthetic peptide and normalized relative to the total mapped reads hitting the phage genome in each replicate. […]

AimR, sequence (P0DOE3 whole entry): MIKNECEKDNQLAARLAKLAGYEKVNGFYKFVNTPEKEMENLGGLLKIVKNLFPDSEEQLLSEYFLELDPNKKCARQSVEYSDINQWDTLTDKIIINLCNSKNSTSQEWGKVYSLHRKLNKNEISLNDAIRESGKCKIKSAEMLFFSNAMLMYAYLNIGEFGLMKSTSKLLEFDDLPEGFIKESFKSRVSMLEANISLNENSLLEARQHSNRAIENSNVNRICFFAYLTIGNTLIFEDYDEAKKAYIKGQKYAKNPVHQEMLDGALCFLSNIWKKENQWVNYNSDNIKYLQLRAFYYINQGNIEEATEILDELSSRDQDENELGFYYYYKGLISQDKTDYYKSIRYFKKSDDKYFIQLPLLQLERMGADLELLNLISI

On to `CC[C@H](C)[C@H](NC(=O)[C@H](C)NC(=O)[C@@H](N)CO)C(=O)N[C@@H](CCCNC(=N)N)C(=O)NCC(=O)N[C@@H](C)C(=O)O` [SAIRGA, Ser-Ala-Ile-Arg-Gly-Ala], for which the “AimR oligomeric state (migration in gel filtration column)” value on AimR is listed as “strictly migrated as a monomer”. In the experiment with phi3T, the bacteria lysogenized was 48% (±7.9%). For the same compound, the “reduction of aimX expression” value in the experiment on aimX is on record as “more than 20 fold”.

The values above are taken from US11542508B2, “Isolated polynucleotides and polypeptides and methods of using same for expressing an expression product of interest” (priority 2016, dated 2023).
